US11566233B2, “Three-dimensional in vitro lung model, process for preparing said model, and its use for determining and /or predicting the sensitizing effects of inhalable products” (LUXEMBOURG INSTITUTE OF SCIENCE AND TECHNOLOGY, priority 2016, dated 2023)
Where two headings read alike, the source gives them in different places.

Experiments:
[1] = tested on: THP-1 cells in the tetraculture lung model; test: Flow cytometry of cell surface marker expression on THP-1 cells in the tetraculture lung model; assay type: cell-based, human; settings: 24 h exposure, compared to control
Procedure: 24 h and 48 h after exposure to the Vitrocell Cloud, THP-1 DC were recovered in the medium in the well. After centrifugation for 5 minutes at 300 g, cells were washed with PBS and staining was performed using antibodies listed in table 1 below (following the manufacturer's recommended dilutions) and the corresponding isotype control to determine the unspecific binding of the antibody and ensure the observed staining is due to specific binding rather than an artifact.
Relative Fluorescence Intensity (RFI) was used as an indicator of OX40L, IL7ra, CD40 and CD86 and CD54 expression and was calculated by the following formula I: […]
(§1) To measure the expression of cell surface markers and the release of different cytokines, the cells of inserts prepared according to example 1 above were exposed to the CV75 or, when it was not possible to reach 75% of viability, cells were exposed to the maximum of solubility of the compounds.
(§2) After 24 h and 48 h, THP-1 cells were recovered, stained and analysed using a flow cytometer according to the protocol detailed in example 2 above. Supernatants were recovered for cytokines measurements.

[2] = tested on: THP-1 cells in monoculture; test: Cell surface marker expression on THP-1 cells in monoculture, submerged conditions (h-CLAT reproduction); assay type: cell-based, human; settings: 24 h exposure
Source text: In parallel, THP-1 cells were exposed in submerged conditions in monoculture in order to reproduce the data obtained using the h-CLAT (human cell line activation test) assay. The h-CLAT assay is based on the property of chemicals to activate dendritic cells, property which is common to both skin and respiratory sensitizers. The h-CLAT is an in vitro model validated at the European level (ECVAM validation).
On a comparative purpose, the expression of CD86 and CD54 cell surface markers were also evaluated in the h-CLAT. It is currently recommended to use the h-CLAT to assess the skin sensitizing potential of chemicals. As skin and lung share the DC activation property, h-CLAT may be considered to be used to assess also the respiratory sensitizing potential of chemicals. To remind, there is no validated models to assess respiratory sensitization available on the market yet.
As different antibodies, fluorochromes and equipment were used to measure the CDs expression, threshold level obtained in literature on the h-CLAT could not be compared to those measured in this example.

[3] = tested on: tetraculture in vitro lung model; test: Cytokines released in the tetraculture in vitro lung model; assay type: cell-based, human; parameters: key: ?: indicates a decrease of cytokine release compared to the vehicle control; ?: indicates an increase of cytokine release compared to the vehicle control; =: indicates no change observed between exposure and the vehicle control; ?: indicates a decrease of cytokine release compared to the vehicle control; ?: indicates an increase of cytokine release compared to the vehicle control
Procedure: as §1, §2
Table 2 below gives a summary of the results obtained for all cytokines measured, wherein, ? indicates a decrease of cytokine release compared to the vehicle control, ? indicates an increase of cytokine release compared to the vehicle control and =indicates no change observed between exposure and the vehicle control: […]

[4] = tested on: THP-1 cells in monoculture; test: Viability of THP-1 cells in monoculture in submerged conditions; assay type: cell-based, human; settings: 24 h exposure, up to maximum of solubility in medium containing 0.2% of DMSO
Procedure: (§3) FIGS. 11A and 11B are diagrams showing viability of THP-1 cells after 24 h exposure to PA (FIG. 11A) and TMA (FIG. 11B) in monoculture in submerged conditions. In this figure, the highest tested concentrations represent the maximum of solubility of the compounds in medium containing 0.2% of DMSO.

[5] = Solubility in medium containing 0.2% of DMSO; assay type: physicochemical
Procedure: as §3

[6] = tested on: tetraculture lung model (A549, EA.hy926, THP-1, Mϕ-THP-1); test: Alamar Blue viability of the tetraculture lung model after Vitrocell Cloud exposure at the air-liquid interface; settings: 24 h and 48 h after exposure
Procedure: (§4) Example of exposure of the inserts is performed in a Vitrocell® Cloud device (Waldkirch, Germany), previously cleaned under sterile conditions, and maintained at 37° C. The inserts are placed into the device. A cloud, from 200 to 500 μL of the product to be tested) is then distributed homogenously inside the chamber and starts to settle on the surface. After about 10 to 30 minutes (depending on the injected product), the cloud is settled by single droplet sedimentation. The concentration which is deposited on the insert can be calculated in g/cm^2.
(§5) Inserts prepared according to example 1 were exposed to chemical compounds and to positive controls using the Vitrocell® Cloud system (Vitrocell, Waldkirch, Germany). All compounds were diluted in a 1/1(v/v) solution of sterile saline solution and PBS.
(§6) Inserts were exposed to a range of concentrations to chemical respiratory irritants and sensitizers in order to determine first the viability of the tissue using the Alamar Blue assay. […] Upon entering cells, resazurin is reduced to pink highly fluorescent resorufin. Viable cells continuously convert resazurin to resorufin. The fluorescence is proportional to cell viability.
(§7) Following 24 h and 48 h exposure to the compounds through the Vitrocell cloud, cells were incubated for 1 hour to 400 μM of Alamar Blue diluted in Coculture 1% medium.
(§8) Viability was assessed using the Alamar Blue assay 24 h and 48 h after exposure according to the protocol detailed in example 2 above.
(§9) The concentration leading to 25% of cytotoxicity (meaning 75% of viability: CV75) relatively compared to the vehicle control was determined using the graphs presented in example 2.

[7] = tested on: tetraculture lung model (A549, EA.hy926, THP-1, Mϕ-THP-1)
Procedure: as §4, §5, §6, §7, §8, §9

In the case of `C=CC=O` [Acrolein], the “expression of cell surface marker CD54 on THP-1 cells” value [1] is reported as “no increase”, the “expression of cell surface marker CD86 on THP-1 cells” value [1] is reported as “no increase” and the “expression of cell surface marker IL7ra on THP-1 cells” value [1] is reported as “decrease”. The “expression of CD54 on THP-1 cells” value [2] was “increase”, the “RANTES release compared to the vehicle control” value ([3]; 24 h) was “=” and the “MCP-1 release compared to the vehicle control” value ([3]; 48 h) was “=”.

In the case of `O=C1OC(=O)c2ccccc21` [PA, Phthalic Anhydrid], the “expression of cell surface marker CD54 on THP-1 cells” value [1] is reported as “Increases”, the “expression of cell surface marker CD86 on THP-1 cells” value [1] is reported as “Increases” and the “IL-7 release compared to the vehicle control” value ([3]; 24 h) is reported as “=”. For the same molecule, the “MCP-1 release compared to the vehicle control” value ([3]; 24 h) was “=”, the “IL-7 release compared to the vehicle control” value ([3]; 48 h) was “=” and the “cytotoxicity of THP-1 cells” value [4] was “not possible to reach any cytotoxity”. For the same molecule, the solubility [5] was “low solubility” and the “cell viability of the alveolar tissue model (in words)” value (shortened to “cell viability”) [6] was “decrease in viability”.

With `O=C(O)c1ccc2c(c1)C(=O)OC2=O` [TMA, Trimellitic Anhydride] the “expression of cell surface marker CD54 on THP-1 cells” value [1] was “Increases”, the “expression of cell surface marker CD86 on THP-1 cells” value [1] was “Increases” and the “expression of CD86 on THP-1 cells” value [2] was “lower than the vehicle control”. For the same molecule, the “IL-7 release compared to the vehicle control” value ([3]; 24 h) was “=”, the “MCP-1 release compared to the vehicle control” value ([3]; 24 h) was “=” and the “IL-7 release compared to the vehicle control” value ([3]; 48 h) was “=”. The “IL-10 release compared to the vehicle control” value ([3]; 48 h) was “=”, the “MCP-1 release compared to the vehicle control” value ([3]; 48 h) was “=” and the “cytotoxicity of THP-1 cells” value [4] was “not possible to reach any cytotoxity”. For the same molecule, the solubility [5] was “low solubility” and the “cell viability” value [6] was “decrease in viability”.

B1: Bet v1: additional known protein sensitizer; important protein allergen of pollen (protein, UniProt P15494 2-160, looked up)
Major pollen allergen Bet v …: GVFNYETETTSVIPAARLFKAFILDGDNLFPKVAPQAISSVENIEGNGGPGTIKKISFPEGFPFKYVKDRVDEVDHTNFKYNYSVIEGGPIGDTLEKISNEIKIVATPDGGSILKISNKYHTKGDHEVKAEQVKASKEMGETLLRAVESYLLAHSDAYN
For B1, the “cell viability” value [7] was “No effect”.
